Positions of bridges follow the written chain, without caps; N, C: chain ends.
Legend:
[1] = tested on: human proximal tubule epithelial cells (HK2); assay: Cisplatin-induced apoptosis in HK-2 cells (Annexin V); type: cell-based; details: THR-123 250 μM, cisplatin 10 μM
Procedure: FIG. 50A-FIG. 50D THR-123 inhibits Cisplatin-induced apoptosis in human proximal tubule epithelial cells (HK2). Immortalized human proximal tubular epithelial-derived HK-2 (Human Kidney-2) cells are passaged on 24-well plates (˜25,000 to 30,000 cells/well). The cells are exposed either K-SFM media alone or K-SFM medium containing THR-123. BMP7 serves as a positive control of experiment. Two hours after incubation, cells are exposed to cisplatin for 60 hours (FIG. 50A-FIG. 50C). FIG. 50D. Cells are exposed to cisplatin for 6 hours and subsequently THR-123 was added into the media. Apoptosis is determined by staining of AnnexinV-FITC Apoptosis detection kit (TACS Annexin V-FITC) (R&D Systems), followed by fluorescence microscopy. Final concentration: THR-123 250 μM, BMP-7 1 μg/ml, cisplatin 10 μm.
HK-2 cells are passaged on 24-well plates (25,000-30,000 cell/well). Once cells attached on the well, cells are exposed either K-SFM media alone or K-SFM medium containing THR-123. BMP7 serves as a positive control of experiment. Two hours after incubation, cells are exposed to cisplatin for 60 hours. Apoptosis is determined by staining of AnnexinV-FITC, followed by fluorescence microscopy. Final concentration: THR-123 250 μM, BMP7 1 μg/ml, cisplatin 10 μM.

[2] = tested on: mice with ischemia reperfusion injury; assay: Ischemia reperfusion injury (IRI) in mice; type: in vivo
Procedure: FIG. 55A-FIG. 55D The effect of THR-123 on acute tubular damage induced by ischemia reperfusion injury. Ischemia reperfusion injury (IRI) was induced by the clamping of the left renal pedicle for 25 minutes. After ischemia reperfusion injury the mice were given THR-123 orally (5 mg/kg/day) or PBS till the day of sacrifice. […] Arrows indicate necrotic tubules. FIG. 55B. […] FIG. 55C. […] Ten fields in each group were analyzed. FIG. 55D. Blood urea nitrogen estimated by quantichrome colorimetric urea assay at day 7 IRI. No difference in the all groups. PBS group (n=5) and THR-123-treated group (n=4) are analyzed. Data are shown as mean±s.e.m. in the graph.
7B16 mice are used in this study. Mice are anesthetized with the mixture of ketamine and xylazine and the left renal pedicle clamped for 25 minutes. At same day after surgery, THR-123 (p.o. 5 mg/Kg/day) or vehicle treatments are started. At 7 days after surgery, mice are sacrificed.

(H)-CYFDDSSNVLCKKYRS-(OH) (H-CYFDDSSNVLCKKYRS-OH; disulfide 1-11; SMILES CC(C)C[C@@H]1NC(=O)[C@H](C(C)C)NC(=O)[C@H](CC(N)=O)NC(=O)[C@H](CO)NC(=O)[C@H](CO)NC(=O)[C@H](CC(=O)O)NC(=O)[C@H](CC(=O)O)NC(=O)[C@H](Cc2ccccc2)NC(=O)[C@H](Cc2ccc(O)cc2)NC(=O)[C@@H](N)CSSC[C@@H](C(=O)N[C@@H](CCCCN)C(=O)N[C@@H](CCCCN)C(=O)N[C@@H](Cc2ccc(O)cc2)C(=O)N[C@@H](CCCNC(=N)N)C(=O)N[C@@H](CO)C(=O)O)NC1=O) [SEQ ID NO: 1]
cisplatin induced apoptosis [1]: inhibited
blood urea nitrogen at day 7 IRI ([2]; THR-123 orally 5 mg/kg/day versus PBS): No difference
renal tubular necrosis / tubular damage ([2]; THR-123 orally 5 mg/kg/day, versus PBS, day 7): significantly less tubular damage

— patent US20160058829A1, “ANTI-FIBROTIC PEPTIDES AND THEIR USE IN METHODS FOR TREATING DISEASES AND DISORDERS CHARACTERIZED BY FIBROSIS” (Thrasos Innovation, Inc., priority 2011, published 2016)
